Source: ChEMBL document CHEMBL1132434, “Antitumor benzothiazoles. 8. Synthesis, metabolic formation, and biological properties of the C- and N-oxidation products of antitumor 2-(4-aminophenyl)benzothiazoles” (J Med Chem, 1999)

How the values were obtained:
SF-268 = assay: Growth inhibition of the SF-268 CNS cancer cell line for 2-day in vitro assay.; assay type: functional; settings: Homo sapiens, SF-268, 48 h
SW-620 = assay: Growth inhibition of the SW-620 colon cancer cell line for 2-day in vitro assay.; assay type: functional; settings: Homo sapiens, SW-620, 48 h
BT-549 = assay: Growth inhibition of the BT-549 Breast cancer cell line for 2-day in vitro assay.; assay type: functional; settings: Homo sapiens, BT-549, 48 h
HCT-116 = assay: Growth inhibition of the HCT116 colon cancer cell line for 2-day in vitro assay.; assay type: functional; settings: Homo sapiens, HCT-116, 48 h
KM12 = assay: Growth inhibition of the KM12 colon cancer cell line for 2-day in vitro assay.; assay type: functional; settings: Homo sapiens, KM12, 48 h
OVCAR-8 = assay: Growth inhibition of the OVCAR-8 Ovarian cancer cell line for 2-day in vitro assay.; assay type: functional; settings: Homo sapiens, OVCAR-8, 48 h
SR = assay: Growth inhibition of the SR leukemia cell line for 2-day in vitro assay.; assay type: functional; settings: Homo sapiens, 48 h
ACHN = assay: Growth inhibition of the ACHN Renal cancer cell line for 2-day in vitro assay.; assay type: functional; settings: Homo sapiens, 48 h
SNB-19 = assay: Growth inhibition of the SNB19 CNS cancer cell line for 2-day in vitro assay.; assay type: functional; settings: Homo sapiens, SNB-19, 48 h
A498 = assay: Growth inhibition of the A498 Renal cancer cell line for 2-day in vitro assay.; assay type: functional; settings: Homo sapiens, A498, 48 h
SK-OV-3 = assay: Growth inhibition of the SK-OV-3 Ovarian cancer cell line for 2-day in vitro assay.; assay type: functional; settings: Homo sapiens, SK-OV-3, 48 h
MOLT-4 = assay: Growth inhibition of the MOLT-4 leukemia cell line for 2-day in vitro assay.; assay type: functional; settings: Homo sapiens, MOLT-4, 48 h
MDA-MB-435 = assay: Growth inhibition of the […] Breast cancer cell line for 2-day in vitro assay.; assay type: functional; settings: Homo sapiens, MDA-MB-435, 48 h
TK-10 = assay: Growth inhibition of the TK-10 Renal cancer cell line for 2-day in vitro assay.; assay type: functional; settings: Homo sapiens, TK-10, 48 h
UACC-62 = assay: Growth inhibition of the UACC-62 Melanoma cancer cell line for 2-day in vitro assay.; assay type: functional; settings: Homo sapiens, UACC-62, 48 h
MCF7 [1] = assay: In vitro cytotoxicity against MCF-7 human mammary carcinoma cells; assay type: functional, cell-based
COLO 205 = assay: Growth inhibition of the COLO-205 colon cancer cell line for 2-day in vitro assay.; assay type: functional; settings: Homo sapiens, COLO 205, 48 h
NCI-H226 = assay: Growth inhibition of the NCI-H226 non-small cell lung cancer cell line for 2-day in vitro assay.; assay type: functional; settings: Homo sapiens, NCI-H226, 48 h
NCI-H460 = assay: Growth inhibition of the NCI-H460 non-small cell lung cancer cell line for 2-day in vitro assay.; assay type: functional; settings: Homo sapiens, NCI-H460, 48 h
MDA-MB-231 = assay: Growth inhibition of the […] Breast cancer cell line for 2-day in vitro assay.; assay type: functional; settings: Homo sapiens, MDA-MB-231, 48 h
U-251 = assay: Growth inhibition of the U251 CNS cancer cell line for 2-day in vitro assay.; assay type: functional; settings: Homo sapiens, U-251, 48 h
EKVX = assay: Growth inhibition of the EKVX non-small cell lung cancer cell line for 2-day in vitro assay.; assay type: functional; settings: Homo sapiens, 48 h
DU-145 = assay: Growth inhibition of the DU-145 Prostate cancer cell line for 2-day in vitro assay.; assay type: functional; settings: Homo sapiens, DU-145, 48 h
PC-3 = assay: Growth inhibition of the PC-3 Prostate cancer cell line for 2-day in vitro assay.; assay type: functional; settings: Homo sapiens, PC-3, 48 h
SK-MEL-5 = assay: Growth inhibition of the SK-MEL-5 Melanoma cancer cell line for 2-day in vitro assay.; assay type: functional; settings: Homo sapiens, SK-MEL-5, 48 h
HCT-15 = assay: Growth inhibition of the HCT-15 colon cancer cell line for 2-day in vitro assay.; assay type: functional; settings: Homo sapiens, HCT-15, 48 h
SK-MEL-28 = assay: Growth inhibition of the SK-MEL-28 Melanoma cancer cell line for 2-day in vitro assay.; assay type: functional; settings: Homo sapiens, SK-MEL-28, 48 h
Malme-3M = assay: Growth inhibition of the MALME-3M Melanoma cancer cell line for 2-day in vitro assay.; assay type: functional; settings: Homo sapiens, 48 h
SN12C = assay: Growth inhibition of the SN12C Renal cancer cell line for 2-day in vitro assay.; assay type: functional; settings: Homo sapiens, 48 h
SNB-75 = assay: Growth inhibition of the SNB-75 CNS cancer cell line for 2-day in vitro assay.; assay type: functional; settings: Homo sapiens, SNB-75, 48 h
Hs-578T = assay: Growth inhibition of the Hs 578.T Breast cancer cell line for 2-day in vitro assay.; assay type: functional; settings: Homo sapiens, 48 h
UO-31 = assay: Growth inhibition of the UO-31 Renal cancer cell line for 2-day in vitro assay.; assay type: functional; settings: Homo sapiens, UO-31, 48 h
CCRF-CEM = assay: Growth inhibition of the CCRF-CEM leukemia cell line for 2-day in vitro assay.; assay type: functional; settings: Homo sapiens, 48 h
SK-MEL-2 = assay: Growth inhibition of the SK-MEL-2 Melanoma cancer cell line for 2-day in vitro assay.; assay type: functional; settings: Homo sapiens, SK-MEL-2, 48 h
SF-295 = assay: Growth inhibition of the SF-295 CNS cancer cell line for 2-day in vitro assay.; assay type: functional; settings: Homo sapiens, SF-295, 48 h
HCC 2998 = assay: Growth inhibition of the HCC2998 colon cancer cell line for 2-day in vitro assay.; assay type: functional; settings: Homo sapiens, HCC 2998, 48 h
HL-60 = assay: Growth inhibition of the HL-60(TB) leukemia cell line for 2-day in vitro assay.; assay type: functional; settings: Homo sapiens, HL-60, 48 h
NCI-H522 = assay: Growth inhibition of the NCI-H522 non-small cell lung cancer cell line for 2-day in vitro assay.; assay type: functional; settings: Homo sapiens, NCI-H522, 48 h
OVCAR-4 = assay: Growth inhibition of the OVCAR-4 Ovarian cancer cell line for 2-day in vitro assay.; assay type: functional; settings: Homo sapiens, OVCAR-4, 48 h
786-0 = assay: Growth inhibition of the 786-O Renal cancer cell line for 2-day in vitro assay.; assay type: functional; settings: Homo sapiens, 786-0, 48 h
HT-29 = assay: Growth inhibition of the HT-29 colon cancer cell line for 2-day in vitro assay.; assay type: functional; settings: Homo sapiens, HT-29, 48 h
NCI/ADR-RES = assay: Growth inhibition of the NCI/ADR-RES Breast cancer cell line for 2-day in vitro assay.; assay type: functional; settings: Homo sapiens, 48 h
SF-539 = assay: Growth inhibition of the SF-539 CNS cancer cell line for 2-day in vitro assay.; assay type: functional; settings: Homo sapiens, SF-539, 48 h
UACC-257 = assay: Growth inhibition of the UACC-257 Melanoma cancer cell line for 2-day in vitro assay.; assay type: functional; settings: Homo sapiens, UACC-257, 48 h
LOX IMVI = assay: Growth inhibition of the LOX IMVI Melanoma cancer cell line for 2-day in vitro assay.; assay type: functional; settings: Homo sapiens, 48 h
MDA-N = assay: Growth inhibition of the MDA-N Breast cancer cell line for 2-day in vitro assay.; assay type: functional; settings: Homo sapiens, 48 h
K562 = assay: Growth inhibition of the K-562 leukemia cell line for 2-day in vitro assay.; assay type: functional; settings: Homo sapiens, K562, 48 h
RXF 393 = assay: Growth inhibition of the RXF-393 Renal cancer cell line for 2-day in vitro assay.; assay type: functional; settings: Homo sapiens, RXF 393, 48 h
A549 = assay: Growth inhibition of the A549/ATCC non-small cell lung cancer cell line for 2-day in vitro assay.; assay type: functional; settings: Homo sapiens, A549, 48 h
HOP-62 = assay: Growth inhibition of the HOP-62 non-small cell lung cancer cell line for 2-day in vitro assay.; assay type: functional; settings: Homo sapiens, HOP-62, 48 h
T47D = assay: Growth inhibition of the T-47D Breast cancer cell line for 2-day in vitro assay.; assay type: functional; settings: Homo sapiens, 48 h
M14 = assay: Growth inhibition of the M14 Melanoma cancer cell line for 2-day in vitro assay.; assay type: functional; settings: Homo sapiens, M14, 48 h
NCI-H23 = assay: Growth inhibition of the NCI-H23 non-small cell lung cancer cell line for 2-day in vitro assay.; assay type: functional; settings: Homo sapiens, NCI-H23, 48 h
NCI-H322M = assay: Growth inhibition of the NCI-H322M non-small cell lung cancer cell line for 2-day in vitro assay.; assay type: functional; settings: Homo sapiens, 48 h
MCF7 [2] = assay: Growth inhibition of the MCF-7 Breast cancer cell line for 2-day in vitro assay.; assay type: functional; settings: Homo sapiens, MCF7, 48 h

For `Cc1cc(-c2nc3ccccc3s2)ccc1N`, the GI50 (SF-268) was > 100 µM, the GI50 (SW-620) was > 100 µM and the GI50 (BT-549) was 66.1 µM. The GI50 (HCT-116) was 43.7 µM, the GI50 (KM12) was > 100 µM and the GI50 (OVCAR-8) was > 100 µM. For the same compound, the GI50 (SR) was 17.4 µM, the GI50 (ACHN) was 51.3 µM and the GI50 (SNB-19) was > 100 µM. The GI50 (A498) was 42.7 µM, the GI50 (SK-OV-3) was > 100 µM and the GI50 (MOLT-4) was 19.5 µM. It also gave a GI50 (MDA-MB-435) of 79.4 µM, a GI50 (TK-10) of 0.186 µM and a GI50 (UACC-62) of 70.8 µM. The IC50 (MCF7 [1]) was < 0.001 µM, the GI50 (COLO 205) was 51.3 µM and the GI50 (NCI-H226) was 0.355 µM. It also gave a GI50 (NCI-H460) of 53.7 µM, a GI50 (MDA-MB-231) of 66.1 µM and a GI50 (U-251) of 66.1 µM. For the same compound, the GI50 (EKVX) was 34.7 µM, the GI50 (DU-145) was 61.7 µM and the GI50 (PC-3) was 31.6 µM. The GI50 (SK-MEL-5) was 21.9 µM, the GI50 (HCT-15) was 47.9 µM and the GI50 (SK-MEL-28) was > 100 µM. For the same compound, the GI50 (Malme-3M) was > 100 µM, the GI50 (SN12C) was 50.1 µM and the GI50 (SNB-75) was 33.1 µM. The GI50 (Hs-578T) was > 100 µM, the GI50 (UO-31) was 6.46 µM and the GI50 (CCRF-CEM) was 6.46 µM. For the same compound, the GI50 (SK-MEL-2) was > 100 µM, the GI50 (SF-295) was 64.6 µM and the GI50 (HCC 2998) was 0.251 µM. It also gave a GI50 (HL-60) of 8.71 µM, a GI50 (NCI-H522) of 32.4 µM and a GI50 (OVCAR-4) of 0.55 µM. For the same compound, the GI50 (786-0) was > 100 µM, the GI50 (HT-29) was 29.5 µM and the GI50 (NCI/ADR-RES) was 93.3 µM. The GI50 (SF-539) was > 100 µM, the GI50 (UACC-257) was 74.1 µM and the GI50 (LOX IMVI) was 37.2 µM. For the same compound, the GI50 (MDA-N) was 97.7 µM, the GI50 (K562) was 60.3 µM and the GI50 (RXF 393) was 67.6 µM. For the same compound, the GI50 (A549) was 28.8 µM, the GI50 (HOP-62) was > 100 µM and the GI50 (T47D) was 0.107 µM. For the same compound, the GI50 (M14) was 57.5 µM, the GI50 (NCI-H23) was 58.9 µM and the GI50 (NCI-H322M) was 43.7 µM. The GI50 (MCF7 [2]) was 0.0316 µM.
